Laboratory results: US6737383B1, “Herbicidal oxadiazolidines” (priority 1999, dated 2004)

What was measured:
[1] = tested on: cocklebur; assay: Test B pre/postemergence cocklebur; type: in vivo, Xanthium strumarium
In short: (§1)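 Test chemicals in a non-phytotoxic solvent mixture with surfactant were sprayed preemergence onto planted seeds and postemergence onto plants 2 to 18 cm tall (1- to 4-leaf stage). After twelve to sixteen days in a greenhouse, injury was visually rated against untreated controls from 0 (no effect) to 10 (complete control).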

[2] = tested on: crabgrass; assay: Test B pre/postemergence crabgrass; type: in vivo, Digitaria sanguinalis
In short: as §1

[3] = tested on: wheat; assay: Test B pre/postemergence wheat; type: in vivo, Triticum aestivum; conditions: for Plant response rating, Wheat: Rate 250 g/ha
In short: as §1

[4] = tested on: wild oat; assay: Test B pre/postemergence wild oat; type: in vivo, Avena fatua; conditions: for Plant response rating, Wild oats: Rate 250 g/ha
In short: as §1

[5] = tested on: common ragweed; assay: Test D common ragweed; type: in vivo, Ambrosia elatior; conditions: Preemergence, 0 to 100 scale
In short: (§2)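 Weed seeds planted in sandy loam; species kept apart in individual pots or compartments. Preemergence tests: treatment to soil surface within one day. Greenhouse growth, then visual injury scoring at 14–21 days (0–100).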

[6] = tested on: guineagrass; assay: Test D guineagrass; type: in vivo, Panicum maximum; conditions: Preemergence, 0 to 100 scale
In short: as §2

[7] = tested on: large crabgrass; assay: Test D large crabgrass; type: in vivo, Digitaria sanguinalis; conditions: Preemergence, 0 to 100 scale
In short: as §2

[8] = tested on: purple nutsedge; assay: Test D purple nutsedge; type: in vivo, Cyperus rotundus; conditions: Preemergence, 0 to 100 scale
In short: as §2

[9] = tested on: winter wheat; assay: Test E winter wheat; type: in vivo, Triticum aestivum; conditions: Postemergence
In short: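 Plants were grown under normal greenhouse practice; for postemergence, in sandy loam soil mixed 60:40 with potting mix, treated at the 1- to 4-leaf stage. The compound was in a non-phytotoxic solvent carrying a surfactant. After roughly 21 to 28 days plants were scored visually against untreated plants.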

[10] = tested on: blackgrass; assay: Test E blackgrass; type: in vivo, Alopecurus myosuroides; conditions: Preemergence
[11] = tested on: green foxtail; assay: Test E green foxtail; type: in vivo, Setaria viridis; conditions: Preemergence
[12] = tested on: Italian ryegrass; assay: Test E Italian ryegrass; type: in vivo, Lolium multiflorum; conditions: Preemergence
[13] = tested on: winter wheat; assay: Test E winter wheat; type: in vivo, Triticum aestivum; conditions: Preemergence
[14] = tested on: wild oat; assay: Test E wild oat; type: in vivo, Avena fatua; conditions: Preemergence, 0 to 100 scale where 0 is no effect and 100 is complete control
[15] = tested on: winter barley; assay: Test E winter barley; type: in vivo, Hordeum vulgare; conditions: Preemergence
[16] = Postemergence, Rate 125 g/ha, scale of 0 to 10 where 0 is no effect and 10 is complete control
[17] = Postemergence, Rate 250 g/ha, scale 0 to 10, 0 no effect, 10 complete control
[18] = Preemergence, Rate 62 g/ha, scale 0 to 10 (0 no effect, 10 complete control)
[19] = Preemergence, Rate 125 g/ha, scale 0 to 10 (0 no effect, 10 complete control)
[20] = Preemergence, Rate 500 g/ha, scale 0 to 10 (0 no effect, 10 complete control)
[21] = Rate 62 g/ha, Postemergence, scale of 0 to 10 where 0 is no effect and 10 is complete control
[22] = Rate 500 g/ha, Postemergence, scale 0 to 10, 0 no effect, 10 complete control
[23] = Preemergence, Rate 125 g/ha, 0 is no effect, 10 is complete control
[24] = Preemergence, scale of 0 to 10 where 0 is no effect and 10 is complete control
[25] = Postemergence, scale 0 to 10, 0 is no effect, 10 is complete control
[26] = Rate 16 g/ha, 0 no injury, 100 complete control
[27] = Rate 32 g/ha, 0 no injury, 100 complete control
[28] = Rate 64 g/ha, 0 no injury, 100 complete control
[29] = Rate 125 g/ha, 0 no injury, 100 complete control
[30] = Rate 500 g/ha, 0 to 100 scale where 0 is no effect and 100 is complete control
[31] = Rate 1000 g/ha, 0 to 100 scale where 0 is no effect and 100 is complete control

CC(C)N(C(=O)n1oc(=O)n(Cc2cccs2)c1=O)c1ccccc1 [Compound 103]
Cocklebur plant response rating [1, 16]: 0
Cocklebur plant response rating [1, 17]: 0
Cocklebur plant response rating [1, 18]: 0
Plant response rating, Cocklebur [1, 19]: 0
Cocklebur plant response rating [1, 20]: 0
Cocklebur plant response rating [1, 21]: 0
Cocklebur plant response rating [1, 22]: 0
Crabgrass plant response rating [2, 16]: 4
Crabgrass plant response rating [2, 17]: 6
Crabgrass plant response rating [2, 18]: 2
Plant response rating, Crabgrass [2, 19]: 6
Plant response rating, Crabgrass ([2]; Preemergence, Rate 250 g/ha, scale of 0 to 10 where 0 is no effect and 10 is complete control): 9
Crabgrass plant response rating [2, 21]: 0
Crabgrass plant response rating [2, 22]: 9
Wheat plant response rating [3, 16]: 0
Wheat plant response rating [3, 18]: 0
Wheat plant response rating (0 to 10 scale) [3, 23]: 0
Plant response rating, Wheat [3, 24]: 0
Wheat plant response rating [3, 20]: 2
Wheat plant response rating [3, 21]: 0
Plant response rating, Wheat [3, 25]: 0
Wheat plant response rating [3, 22]: 0
Wild oats plant response rating [4, 16]: 0
Wild oats plant response rating [4, 18]: 0
Wild oats plant response rating (0 to 10 scale) [4, 23]: 0
Plant response rating, Wild oats [4, 24]: 3
Wild oats plant response rating [4, 20]: 6
Wild oats plant response rating [4, 21]: 0
Plant response rating, Wild oats [4, 25]: 0
Wild oats plant response rating [4, 22]: 0
Plant response rating, C. ragweed [5, 26]: 0
Plant response rating, C. ragweed [5, 27]: 0
Plant response rating, C. ragweed [5, 28]: 0
Plant response rating, C. ragweed [5, 29]: 0
Plant response rating, C. ragweed ([5]; Rate 250 g/ha): 0
Plant response rating, C. ragweed ([5]; Rate 500 g/ha): 0
Plant response rating, Guineagrass [6, 26]: 0
Plant response rating, Guineagrass [6, 27]: 0
Plant response rating, Guineagrass [6, 28]: 0
Plant response rating, Guineagrass [6, 29]: 85
Plant response rating, Guineagrass ([6]; Rate 250 g/ha): 90
Plant response rating, Guineagrass ([6]; Rate 500 g/ha): 100
Plant response rating, Large crabgrass [7, 26]: 0
Plant response rating, Large crabgrass [7, 27]: 0
Plant response rating, Large crabgrass [7, 28]: 85
Plant response rating, Large crabgrass [7, 29]: 95
Plant response rating, Large crabgrass ([7]; Rate 250 g/ha): 98
Plant response rating, Large crabgrass ([7]; Rate 500 g/ha): 100
Plant response rating, Purple nutsedge [8, 26]: 0
Plant response rating, Purple nutsedge [8, 27]: 0
Purple nutsedge plant response rating [8, 28]: 0
Purple nutsedge plant response rating [8, 29]: 0
Plant response rating, Purple nutsedge ([8]; Rate 250 g/ha): 0
Plant response rating, Purple nutsedge ([8]; Rate 500 g/ha): 10
Plant response rating, Wheat (winter) ([9]; Rate 250 g/ha, 0 to 100 scale (0 no effect, 100 complete control)): 0
Plant response rating, Wheat (winter) ([9]; Rate 1000 g/ha, 0 to 100 scale, 0 is no effect and 100 is complete control): 10
Plant response rating, Wheat (winter) ([9]; Rate 500 g/ha, 0 to 100 scale, 0 no effect, 100 complete control): 0
Plant response rating, Blackgrass ([10]; Rate 250 g/ha, 0 to 100 scale): 30
Plant response rating, Blackgrass [10, 30]: 50
Plant response rating, Blackgrass [10, 31]: 70
Plant response rating, Green foxtail ([11]; Rate 250 g/ha, 0 to 100 scale): 70
Plant response rating, Green foxtail [11, 30]: 70
Plant response rating, Green foxtail [11, 31]: 100
Plant response rating, I. Ryegrass ([12]; Rate 250 g/ha, 0 to 100 scale): 50
Plant response rating, I. Ryegrass [12, 30]: 50
Plant response rating, I. Ryegrass [12, 31]: 70
Plant response rating, Wheat (winter) ([13]; Rate 250 g/ha, 0 to 100 scale): 20
Plant response rating, Wheat (winter) [13, 30]: 30
Plant response rating, Wheat (winter) [13, 31]: 30
Plant response rating, Wild oat ([14]; Rate 500 g/ha): 50
Plant response rating, Wild oat ([14]; Rate 1000 g/ha): 70
Plant response rating, Barley (winter) ([15]; Rate 250 g/ha, 0 to 100 scale): 30
Plant response rating, Barley (winter) [15, 30]: 40
Plant response rating, Barley (winter) [15, 31]: 50
